Columns and labels:
[1] = system: Influenza A virus; assay: Antiviral activity against Influenza A virus A/PR/8/34 (H1N1) infected in MDCK cells assessed as inhibition of virus-induced cytopathic effect; type: functional, organism-based; conditions: A/Puerto Rico/8/1934(H1N1)
[2] = system: Influenza A virus; assay: Antiviral activity against Influenza A virus A/PR/8/34 (H1N1) infected in MDCK cells assessed as cell viability by MTS assay; type: functional, organism-based; conditions: A/Puerto Rico/8/1934(H1N1)
[3] = Antiviral activity against Influenza A virus A/HK/7/87 (H3N2) infected in MDCK cells assessed as inhibition of virus-induced cytopathic effect; type: functional, cell-based, Influenza A virus (A/Hong Kong/7/1987(H3N2))
[4] = Antiviral activity against Influenza A virus A/HK/7/87 (H3N2) infected in MDCK cells assessed as cell viability by MTS assay; type: functional, cell-based, Influenza A virus (A/Hong Kong/7/1987(H3N2))
[5] = target: Matrix protein 2 (Influenza A virus) (UniProt P06821); assay: Inhibition of influenza A virus wild type M2 proton channel expressed in Xenopus oocytes at 100 uM for 2 mins by two-electrode voltage clamp analysis; type: cell-based
Chain of Matrix protein 2 (Influenza A virus) (P06821 whole entry): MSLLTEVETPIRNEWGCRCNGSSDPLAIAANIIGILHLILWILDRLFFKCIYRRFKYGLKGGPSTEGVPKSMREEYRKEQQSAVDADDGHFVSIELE

[6] = Cytotoxicity against MDCK cells assessed as cell morphology by microscopical examination; type: cell-based, Canis lupus familiaris; conditions: dog
[7] = Cytotoxicity against MDCK cells assessed as cell viability after 72 hrs by MTS assay; type: cell-based, Canis lupus familiaris; conditions: dog

With `C1CC23CCCC2(C1)CNC3` (stereo not given) the EC50 [1] was > 100 µM, the EC50 [2] was > 100 µM and the EC50 [3] was > 100 µM. The EC50 [4] was > 100 µM, the inhibition [5] was 47.1% and the MCC [6] was > 100 µM. For the same compound, the CC50 at 72 h [7] was > 100 µM.
In the case of `N=C(N)N1CC23CCCC2(CCC3)C1` (stereo not given), the EC50 [1] is reported as > 100 µM, the EC50 [2] is reported as > 100 µM and the EC50 [3] is reported as > 100 µM. For the same compound, the EC50 [4] was > 100 µM, the MCC [6] was 54 µM and the CC50 at 72 h [7] was 100 µM.
For `C1=CC[C@]23CC=CC[C@@]2(C1)CNC3`, the EC50 [1] was 38 µM, the EC50 [2] was 30 µM and the EC50 [3] was > 100 µM. The EC50 [4] was > 100 µM, the MCC [6] was > 100 µM and the CC50 at 72 h [7] was > 100 µM.
For `C=C1CC23CNCC2(C1)CC(=C)C3` (stereo not given), the EC50 [1] was < 0.8 µM, the EC50 [2] was < 0.8 µM and the EC50 [3] was > 100 µM. The EC50 [4] was > 100 µM, the inhibition [5] was 29.3% and the MCC [6] was > 100 µM. The CC50 at 72 h [7] was > 100 µM.
In the case of `C1CC[C@]23CCCC[C@@]2(C1)CNC3`, the EC50 [1] is reported as 5.9 µM, the EC50 [2] is reported as 13 µM and the EC50 [3] is reported as > 100 µM. For the same compound, the EC50 [4] was > 100 µM, the MCC [6] was > 100 µM and the CC50 at 72 h [7] was > 100 µM.
In the case of `C1=CC[C@]23CCC[C@@]2(C1)CNC3`, the EC50 [1] is reported as 70 µM, the EC50 [2] is reported as 56 µM and the EC50 [3] is reported as > 100 µM. The EC50 [4] was > 100 µM, the MCC [6] was > 100 µM and the CC50 at 72 h [7] was > 100 µM.
In the case of `C=C1CC23CC=CCC2(CNC3)C1` (stereo not given), the EC50 [1] is reported as 45 µM, the EC50 [2] is reported as 43 µM and the EC50 [3] is reported as > 100 µM. For the same compound, the EC50 [4] was > 100 µM, the inhibition [5] was 14.9% and the MCC [6] was > 100 µM. The CC50 at 72 h [7] was > 100 µM.
With `C1=CC2C3C4C5C=CC4C24CNCC54C13` the EC50 [1] was 16 µM, the EC50 [3] was 14 µM and the MCC [6] was > 100 µM. For the same compound, the CC50 at 72 h [7] was > 100 µM.
For `C1=CC[C@]23CCCC[C@@]2(C1)CNC3`, the EC50 [1] was 30 µM, the EC50 [2] was 14 µM and the EC50 [3] was > 100 µM. For the same compound, the EC50 [4] was > 100 µM, the inhibition [5] was 19.1% and the MCC [6] was > 100 µM. The CC50 at 72 h [7] was > 100 µM.
For `CC1CC23CC(C)CC2(C1)CN(C(=N)N)C3` (stereo not given), the EC50 [1] was 2 µM, the EC50 [2] was 1.6 µM and the EC50 [3] was > 100 µM. The EC50 [4] was > 100 µM, the inhibition [5] was 8.8% and the MCC [6] was > 100 µM. For the same compound, the CC50 at 72 h [7] was > 20 µM.
For `CC1CC23CNCC2(C1)CC(C)C3` (stereo not given), the EC50 [1] was 24 µM, the EC50 [2] was 20 µM and the EC50 [3] was > 100 µM. For the same compound, the EC50 [4] was > 100 µM, the inhibition [5] was 58.7% and the MCC [6] was > 100 µM. The CC50 at 72 h [7] was > 100 µM.
In the case of `C=C1CC23CC(=C)CC2(C1)CN(C(=N)N)C3` (stereo not given), the EC50 [1] is reported as > 100 µM, the EC50 [2] is reported as > 100 µM and the EC50 [3] is reported as > 100 µM. The EC50 [4] was > 100 µM, the MCC [6] was 16 µM and the CC50 at 72 h [7] was 20 µM.
With `C=C1CC23CCCC2(CNC3)C1` (stereo not given) the EC50 [1] was > 100 µM, the EC50 [2] was > 100 µM and the EC50 [3] was > 100 µM. For the same compound, the EC50 [4] was > 100 µM, the inhibition [5] was 29.9% and the MCC [6] was > 100 µM. The CC50 at 72 h [7] was > 100 µM.
With `CC1=C(C)C[C@]23CNC[C@@]2(C1)CC(C)=C(C)C3` the EC50 [1] was 7 µM, the EC50 [2] was 5.6 µM and the EC50 [3] was > 100 µM. For the same compound, the EC50 [4] was > 100 µM, the MCC [6] was > 100 µM and the CC50 at 72 h [7] was > 100 µM.
With `N=C(N)N1C[C@@]23CC=CC[C@@]2(CCC3)C1` the EC50 [1] was > 100 µM, the EC50 [2] was > 100 µM and the EC50 [3] was > 100 µM. The EC50 [4] was > 100 µM, the MCC [6] was > 100 µM and the CC50 at 72 h [7] was > 100 µM.

— ChEMBL document CHEMBL3351890, “Azapropellanes with anti-influenza a virus activity” (ACS Med Chem Lett, 2014)
